≈ marks a conversion by molar mass, not a printed value.
Columns and labels:
[1] = test system: P. haemolytica; test: MIC by conventional broth-dilution assay against P. haemolytica strains (Table II); assay type: cell-based, P. haemolytica (bovine strains); conditions: Mannheimia haemolytica
Procedure: (§1) For example, representative compounds were tested against avian, bovine and porcine Pasteurella species, using the conventional broth-dilution assay. The P. haemolytica strains are bovine strains; the P. multocida strains are avian, bovine and porcine strains.

[2] = test system: Pasteurella multocida; test: Treatment of Pasteurellosis in mice (Table IV); assay type: in vivo, mice; bovine isolate of P. multocida; conditions: 50 mg/kg × 2 s.c., 1 and 4 h post challenge, 7 days
Procedure: Cirramycin A1 and rosaramicin were evaluated in mice by subcutaneous injection given one and four hours post challenge of the mice with Pasteurella multocida (0.1 ml of a 10^-5 dilution of a tryptose broth culture of a bovine isolate). Mortality was evaluated for the following seven days.

[3] = test system: Pasteurella multocida; test: Treatment of Pasteurellosis in chicks (Table III); assay type: in vivo, chicks; avian P. multocida; conditions: 1 and 4 h post challenge, 5 days observation, ten chicks per group
Procedure: Representative compounds were evaluated in groups of ten one-day-old chicks at the specified dosage of subcutaneous injection given one and four hours post challenge of the chicks with Pasteurella multocida (0.1 ml of a 20-hour tryptose broth culture of an avian P. multocida given subcutaneously). The compounds (as free bases) were administered in an aqueous propylene glycol solution; non-medicated water and feed were provided to the animals ad libitum.

[4] = test system: P. multocida; test: MIC by conventional broth-dilution assay against P. multocida strains (Table II); assay type: cell-based, P. multocida (avian, bovine and porcine strains); conditions: Pasteurella multocida
Procedure: as §1

[5] = 30 mg/kg × 2 s.c., first (or only) experiment
[6] = 30 mg/kg × 2 s.c., second experiment

Compound | MIC ([1]; P. haemolytica strain 23A) | MIC ([1]; P. haemolytica strain 23C) | MIC ([1]; P. haemolytica strain 41D) | No. Died/No. Treated ([2]; Test A, replicate 1) | No. Died/No. Treated ([2]; Test A, replicate 2) | No. Died/No. Treated ([2]; Test B, replicate 1) | No. Died/No. Treated ([2]; Test B, replicate 2) | Deaths in Treated Chicks/Deaths in Infected Nonmedicated Controls [3, 5] | Deaths in Treated Chicks/Deaths in Infected Nonmedicated Controls ([3]; 60 mg/kg × 2 s.c.) | MIC ([4]; P. multocida strain 17E) | MIC ([4]; P. multocida strain 22A) | MIC ([4]; P. multocida strain 40G) | MIC ([4]; P. multocida strain 60A) | MIC ([4]; P. multocida strain 68C) | Deaths in Treated Chicks/Deaths in Infected Nonmedicated Controls [3, 6]
CC[C@H]1OC(=O)C[C@@H](O)[C@H](C)[C@@H](O[C@@H]2O[C@H](C)C[C@H](N(C)C)[C@H]2O)[C@@H](CC=O)C[C@@H](C)C(=O)/C=C/[C@]2(C)O[C@H]2[C@@H]1C [Rosaramicin, rosaramicin] | 1.56 µg/mL (≈ 2.68 µM) | 12.5 µg/mL (≈ 21.5 µM) | 1.56 µg/mL (≈ 2.68 µM) | 0/5 | 0/5 | 0/5 | 3/5 | 5/8 | 2/8 | ≤ 0.78 µg/mL | 1.56 µg/mL (≈ 2.68 µM) | 1.56 µg/mL (≈ 2.68 µM) | ≤ 0.78 µg/mL | ≤ 0.78 µg/mL | –
CCC1OC(=O)CC(O)C(C)C(OC2OC(C)C(O)C(N(C)C)C2O)C(CCO)CC(C)C(=O)C=CC(C)=CC1COC1OC(C)C(O)C(OC)C1OC (stereo not shown) [20-Dihydrodesmycosin, 20-dihydrodesmycosin] | 50 µg/mL (≈ 64.6 µM) | 50 µg/mL (≈ 64.6 µM) | 50 µg/mL (≈ 64.6 µM) | – | – | – | – | 0/10 | – | 25 µg/mL (≈ 32.3 µM) | 25 µg/mL (≈ 32.3 µM) | 50 µg/mL (≈ 64.6 µM) | 25 µg/mL (≈ 32.3 µM) | 6.25 µg/mL (≈ 8.08 µM) | 0/10
CCC1OC(=O)CC(O)C(C)C(OC2OC(C)C(O)C(N(C)C)C2O)C(CC=O)CC(C)C(=O)C=CC(C)=CC1COC1OC(C)C(O)C(OC)C1OC (stereo not shown) [Desmycosin, desmycosin] | 25 µg/mL (≈ 32.4 µM) | 25 µg/mL (≈ 32.4 µM) | 25 µg/mL (≈ 32.4 µM) | – | – | – | – | 0/10 | – | 12.5 µg/mL (≈ 16.2 µM) | 12.5 µg/mL (≈ 16.2 µM) | 25 µg/mL (≈ 32.4 µM) | 12.5 µg/mL (≈ 16.2 µM) | 6.25 µg/mL (≈ 8.1 µM) | 0/10
CCC1OC(=O)CC(O)C(C)C(OC2OC(C)C(O)C(N(C)C)C2O)C(CC=O)CC(C)C(=O)C=CC(C)=CC1C (stereo not shown) [DOMT, 23-deoxy-5-O-mycaminosyltylonolide] | 3.12 µg/mL (≈ 5.36 µM) | 3.12 µg/mL (≈ 5.36 µM) | 6.75 µg/mL (≈ 11.6 µM) | – | – | – | – | 1/9 | – | 1.56 µg/mL (≈ 2.68 µM) | 1.56 µg/mL (≈ 2.68 µM) | 3.12 µg/mL (≈ 5.36 µM) | ≤ 0.78 µg/mL | ≤ 0.78 µg/mL | 1/10
CCC1OC(=O)CC(O)C(C)C(OC2OC(C)C(O)C(N(C)C)C2O)C(CC=O)CC(C)C(=O)C=CC(C)=CC1COC1OC(C)C(O)C(O)C1OC (stereo not shown) [Lactenocin, lactenocin] | 25 µg/mL (≈ 33 µM) | 25 µg/mL (≈ 33 µM) | 50 µg/mL (≈ 66 µM) | – | – | – | – | 0/10 | – | 12.5 µg/mL (≈ 16.5 µM) | 12.5 µg/mL (≈ 16.5 µM) | 25 µg/mL (≈ 33 µM) | 6.25 µg/mL (≈ 8.25 µM) | 6.25 µg/mL (≈ 8.25 µM) | 0/10
CCC1OC(=O)CC(O)C(C)C(OC2OC(C)C(O)C(N(C)C)C2O)C(CC=O)CC(C)C(=O)C=CC2(C)OC2C1C (stereo not shown) [Cirramycin A1, cirramycin A1] | 3.12 µg/mL (≈ 5.22 µM) | 3.12 µg/mL (≈ 5.22 µM) | 3.12 µg/mL (≈ 5.22 µM) | 1/5 | 2/5 | 1/5 | 0/5 | – | – | 1.56 µg/mL (≈ 2.61 µM) | 3.12 µg/mL (≈ 5.22 µM) | 3.12 µg/mL (≈ 5.22 µM) | ≤ 0.78 µg/mL | 1.56 µg/mL (≈ 2.61 µM) | –
CCC1OC(=O)CC(O)C(C)C(OC2OC(C)C(O)C(N(C)C)C2O)C(CC=O)CC(C)C(O)C=CC(C)=CC1COC1OC(C)C(O)C(OC)C1OC (stereo not shown) [9-Dihydrodesmycosin, 9-dihydrodesmycosin] | 25 µg/mL (≈ 32.3 µM) | 25 µg/mL (≈ 32.3 µM) | 25 µg/mL (≈ 32.3 µM) | – | – | – | – | 3/10 | – | 12.5 µg/mL (≈ 16.2 µM) | 12.5 µg/mL (≈ 16.2 µM) | 12.5 µg/mL (≈ 16.2 µM) | 12.5 µg/mL (≈ 16.2 µM) | 12.5 µg/mL (≈ 16.2 µM) | 0/10
